Laboratory results: ChEMBL document CHEMBL5331060, “Bisindole natural products: A vital source for the development of new anticancer drugs” (Eur J Med Chem, 2022)
Values after ≈ are worked out from the molar mass of the structure shown.

Experiments:
Format in all cases: functional, cell-based
[1] = test system: PANC-1; test: Antiproliferative activity against human PANC-1 cells assessed as inhibition of cell growth incubated for 24 hrs by FMCA assay; settings: PANC-1, 24 h
[2] = test system: CAKI-2; test: Antiproliferative activity against human CAKI-2 cells assessed as inhibition of cell growth incubated for 24 hrs by SRB assay; settings: CAKI-2, 24 h
[3] = Antiproliferative activity against human StMl1 1a cells assessed as inhibition of cell growth incubated for 24 hrs by SRB assay
[4] = test system: LS174T; test: Antiproliferative activity against human LS174T cells assessed as inhibition of cell growth incubated for 24 hrs by SRB assay
[5] = test system: MCF7; test: Antiproliferative activity against human MCF7 cells assessed as inhibition of cell growth incubated for 24 hrs by SRB assay; settings: MCF7, 24 h
[6] = test system: A549; test: Antiproliferative activity against human A549 cells assessed as inhibition of cell growth
[7] = test system: HCT-8; test: Antiproliferative activity against human HCT-8 cells assessed as inhibition of cell growth
[8] = Antiproliferative activity against human MDA-MB cells assessed as inhibition of cell growth
[9] = test system: PANC-1; test: Antiproliferative activity against human PANC-1 cells assessed as inhibition of cell growth incubated for 72 hrs by MTT assay; settings: PANC-1, 72 h
[10] = test system: BXPC-3; test: Antiproliferative activity against human BXPC-3 cells assessed as inhibition of cell growth incubated for 72 hrs by MTT assay; settings: BXPC-3, 72 h
[11] = test system: MIA PaCa-2; test: Antiproliferative activity against human MIA PaCa-2 cells assessed as inhibition of cell growth incubated for 72 hrs by MTT assay; settings: MIA PaCa-2, 72 h
[12] = test system: ASPC1; test: Antiproliferative activity against human ASPC1 cells assessed as inhibition of cell growth incubated for 72 hrs by MTT assay; settings: ASPC1, 72 h
[13] = test system: HL-60; test: Antiproliferative activity against human HL-60 cells assessed as inhibition of cell growth
[14] = test system: SMMC-7721; test: Antiproliferative activity against human SMMC-7721 cells assessed as inhibition of cell growth
[15] = test system: MCF7; test: Antiproliferative activity against human MCF7 cells assessed as inhibition of cell growth
[16] = test system: SW480; test: Antiproliferative activity against human SW480 cells assessed as inhibition of cell growth
[17] = test system: HCT-116; test: Antiproliferative activity against human HCT-116 cells assessed as inhibition of cell growth incubated for 24 hrs by MTT assay; settings: HCT-116, 24 h
[18] = Antiproliferative activity against human AV3 cells assessed as inhibition of cell growth incubated for 72 hrs by MTT assay; settings: AV3, 72 h
[19] = test system: Huh-7; test: Antiproliferative activity against human Huh-7 cells assessed as inhibition of cell growth incubated for 72 hrs by MTT assay; settings: Huh-7, 72 h
[20] = test system: MDA-MB-231; test: Antiproliferative activity against human MDA-MB-231 cells assessed as inhibition of cell growth incubated for 72 hrs by MTT assay; settings: MDA-MB-231, 72 h
[21] = Antiproliferative activity against vincristine-resistant human KB cells assessed as inhibition of cell growth incubated for 72 hrs by MTT assay
[22] = test system: HCT-116; test: Antiproliferative activity against human HCT-116 cells assessed as inhibition of cell growth
[23] = test system: B16; test: Antiproliferative activity against B16 cells assessed as inhibition of cell growth by MTT assay; settings: Mus musculus
[24] = test system: NCI-H460; test: Antiproliferative activity against human NCI-H460 cells assessed as inhibition of cell growth by MTT assay
[25] = test system: CCRF-CEM; test: Antiproliferative activity against human CCRF-CEM cells assessed as inhibition of cell growth by MTT assay
[26] = test system: HT-29; test: Antiproliferative activity against human HT-29 cells assessed as inhibition of cell growth incubated for 48 hrs by SRB assay; settings: HT-29, 48 h

## O=C1NCc2c1c1c3ccc(O)cc3[nH]c1c1[nH]c3ccccc3c21
[1]
  IC50: 68 µM

## C/C=C1/CN2CC[C@@H]3c4ccccc4N4[C@H](C(=O)OC)[C@H]1C[C@H]2[C@]34/C=C/C1=COC[C@@H]2[C@H]1C[C@H]1c3c(c4ccccc4n3C)C[C@@H]2N1C
[2]
  IC50: 2 µM
[3]
  IC50: 2 µM
[4]
  IC50: 2 µM
[5]
  IC50: 2 µM

## CN1C[C@H](c2c[nH]c3c(Br)c(Br)cc(O)c23)NC[C@H]1c1c[nH]c2cc(Br)ccc12
[6]
  IC50: 1 µg/mL
[7]
  IC50: 1 µg/mL (≈ 1.71 µM)
[8]
  IC50: 1 µg/mL (≈ 1.71 µM)

## N=C(N)NCCSc1nc(-c2c[nH]c3cc(Br)ccc23)cnc1-c1c[nH]c2cc(Br)ccc12
[9]
  IC50: 18 µM
[10]
  IC50: 14 µM
[11]
  IC50: 26 µM
[12]
  IC50: 27 µM

## C/C=C1\CN(C)[C@H]2Cc3c([nH]c4ccccc34)[C@H](c3c(O)ccc4c5c([nH]c34)[C@]3(C(=O)OC)C[C@@H]4C[C@H](CC)[C@@H]3N(CC5)C4)C[C@H]1[C@]2(CO)C(=O)OC
[6]
  IC50: 0.17 µM
[13]
  IC50: 0.17 µM
[14]
  IC50: 0.17 µM
[15]
  IC50: 0.17 µM
[16]
  IC50: 0.17 µM

## O=C1C[C@@H]2c3ccc(O)c(O)c3[C@@]3(Nc4ccccc4C3=O)[C@@]23C(=O)c2ccccc2N13
[17]
  IC50: 78 µM

## C/C=C1/CCN2CC[C@@]34c5cc6c(cc5N(C)[C@]35OC[C@]4(C(=O)OC)[C@@H]1[C@H]25)O[C@@]12[C@@H]3C[C@H]4/C(=C\C)CN3CC[C@]1(C6)c1ccccc1N2[C@@H]4C(=O)OC
[18]
  IC50: 9.8 µM
[19]
  IC50: 9.8 µM
[20]
  IC50: 9.8 µM

## C/C=C1/CCN2CC[C@@]34c5cc6c(cc5N(C)[C@]35OC[C@]4(C(=O)OC)[C@@H]1[C@H]25)O[C@@]12[C@@H]3C[C@H]4/C(=C\C)CN3CC[C@]1(C6)c1ccccc1N2[C@]4(CO)C(=O)OC
[18]
  IC50: 9.8 µM
[19]
  IC50: 9.8 µM
[20]
  IC50: 9.8 µM

## O=C1NC(=O)c2c1c1c3ccccc3[nH]c1c1[nH]c3cc(O)ccc3c21
[21]
  IC50: 2.28 µg/mL (≈ 6.68 µM)

## C=C1[C@H]2C[C@@H]3N(CC[C@@]34c3cccc5c3N(C[C@H]3[C@H]6C[C@@H]7N(CC[C@@]78c7ccccc7N[C@@]538)C[C@H]6CC)[C@@H]14)C[C@H]2CC
[6]
  IC50: 3.8 µM
[22]
  IC50: 3.8 µM
[13]
  IC50: 3.8 µM
[15]
  IC50: 3.8 µM

## COC(=O)c1[nH]cc2c1[C@]1(CN(C)c3ccc(Cl)cc31)c1[nH]c3ccc(Cl)cc3c1-2
[23]
  IC50: 5 µg/mL (≈ 11.4 µM)
[24]
  IC50: 12 µg/mL (≈ 27.4 µM)
[25]
  IC50: 4 µg/mL (≈ 9.13 µM)

## C/C=C1/CN2CC[C@@]34C[C@H]5[C@@H]6C[C@H]7c8c(c9ccccc9n8C)C[C@@H]([C@@H]6CO[C@@]5(C)O[C@@]35[C@@H]2C[C@@H]1[C@@H](C(=O)OC)N5c1ccccc14)N7C
[2]
  IC50: 2 µM
[26]
  IC50: 8 µM
[3]
  IC50: 2 µM
[4]
  IC50: 2 µM
[5]
  IC50: 2 µM
